Assay results: patent publication US4540699A, “N-Substituted pyridinones having histamine H2 -antagonist activity” (Smith Kline & French Laboratories Limited, priority 1982, dated 1985)

Test system: histamine H2 -receptors
Experiment: inhibition of histamine-stimulated gastric acid secretion in urethane-anaesthetised rats after intraduodenal and intravenous injection
Format: in vivo, rat
Settings: ratio intraduodenal/intravenous dose for 50% inhibition; rats anaesthetised with urethane
Description: The inhibition of histamine-stimulated secretion of gastric acid in rats anaesthetised with urethane was measured after administration of test compounds by intraduodenal injection and intravenous injection. For the compound of Example 2 the intraduodenal dose required to produce 50% inhibition was only 3 times the intravenous dose required to produce a similar effect, and for the compound of Example 10 the intraduodenal dose required was 10 times the intravenous dose. In contrast the compound of Example 7 of EP-A-3677 required an intraduodenal dose 500 times that of the intravenous dose required to inhibit acid secretion by 50%. Good activity after intraduodenal injection is indicative that there will good activity after oral administration.

In the case of `CN(C)Cc1ccc(CSCCNc2ncc(Cc3ccn(C)c(=O)c3)c(=O)[nH]2)o1` [Example 2, 2-[2-(2-Dimethylaminomethyl-5-furylmethylthio)ethylamino]-5-(1-methyl-2-oxopyridin-4-ylmethyl)pyrimidin-4-one], the “intraduodenal dose required to produce 50% inhibition of acid secretion relative to the intravenous dose” value is reported as 3 times.
`Cn1ccc(Cc2cnc(NCCCOc3cccc(CN4CCCCC4)c3)[nH]c2=O)cc1=O` [Example 10, 2-[3-[3-(Piperidinomethyl)phenoxy]propylamino]-5-(1-methyl-2-oxopyridin-4-ylmethyl)pyrimidin-4-one] was tested, and the “intraduodenal dose required to produce 50% inhibition of acid secretion relative to the intravenous dose” value was 10 times.
